As a reminder, the IC50 is the concentration at which inhibition is half-maximal.

Structures are written as SMILES. Counter-ions that a name gives are not always drawn.

One test deals with T1, myeloperoxidase (MPO) (Homo sapiens, UniProt P05164).
T1 sequence (P05164 49-745): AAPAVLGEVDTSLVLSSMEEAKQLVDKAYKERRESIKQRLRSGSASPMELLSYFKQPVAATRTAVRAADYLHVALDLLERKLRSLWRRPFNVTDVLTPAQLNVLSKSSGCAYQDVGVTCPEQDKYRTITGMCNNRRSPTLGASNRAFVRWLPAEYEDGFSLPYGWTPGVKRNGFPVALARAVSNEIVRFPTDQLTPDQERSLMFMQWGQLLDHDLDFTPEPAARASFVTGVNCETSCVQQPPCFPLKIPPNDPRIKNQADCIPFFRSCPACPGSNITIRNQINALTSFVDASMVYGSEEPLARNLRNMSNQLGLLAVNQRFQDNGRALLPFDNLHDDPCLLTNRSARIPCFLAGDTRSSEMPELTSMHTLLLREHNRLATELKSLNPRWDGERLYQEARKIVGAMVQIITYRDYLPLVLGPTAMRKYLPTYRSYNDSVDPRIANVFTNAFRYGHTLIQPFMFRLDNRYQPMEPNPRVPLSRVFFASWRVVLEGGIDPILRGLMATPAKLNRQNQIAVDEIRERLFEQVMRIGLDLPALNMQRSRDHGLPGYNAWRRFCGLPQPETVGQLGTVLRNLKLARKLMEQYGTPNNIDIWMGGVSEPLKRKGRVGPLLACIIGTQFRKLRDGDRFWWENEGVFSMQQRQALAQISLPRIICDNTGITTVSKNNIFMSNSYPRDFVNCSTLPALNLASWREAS
The test is described as follows: MPO peroxidation assay (Amplex Red assay). It is filed as biochemical.
Details: not given
Summed up: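 Peroxidase turnover of Amplex Red to fluorescent resorufin (Ex 535/Em 590 nm) was followed for 15 min in 100 mM KPi, pH 7.4, after 10 min room-temperature preincubation of compound with 200 pM enzyme plus 40 nM H2O2. The substrate mix contained 200 μM Amplex Red and 10 mM H2O2. IC50s came from linear-phase rates (180–540 s) fitted with a Hill equation.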
In turn, `CS(=O)(=O)c1ccccc1COc1cc(N)nc2[nH]nnc12` [Example 232, 7-((2-(Methylsulfonyl)benzyl)oxy)-3H-[1,2,3]triazolo[4,5-b]pyridin-5-amine] came in with an IC50 of 101 to 999 nM.

In turn, `Nc1cc(OCc2ccccc2-n2cccn2)c2nn[nH]c2n1` [Example 255, 7-((2-(1H-Pyrazol-1-yl)benzyl)oxy)-3H-[1,2,3]triazolo[4,5-b]pyridin-5-amine] had an IC50 of 101 to 999 nM.

Staying with this test, now noted: MPO peroxidation, potency range class; read-out: Amplex Red IC50.
With `CN(C(=O)c1ccc(COc2cc(N)nc3[nH]nnc23)c(Cl)c1)C1CCCCC1` [Example 223, 4-((5-amino-3H-[1,2,3]triazolo[4,5-b]pyridin-7-yloxy)methyl)-3-chloro-N-cyclohexyl-N-methylbenzamide], the IC50 lay in the range of 101 to 999 nM.

Take `Nc1cc(OCc2ccc(C(=O)NCCc3c[nH]cn3)cc2Cl)c2nn[nH]c2n1` [Example 224, N-(2-(1H-imidazol-4-yl)ethyl)-4-((5-amino-3H-[1,2,3]triazol[4,5-b]pyridin-7-yloxy)methyl)-3-chlorobenzamide]: the IC50 lay in the range of 1 to 100 nM.

`CS(=O)(=O)c1cccc(Cl)c1COc1cc(N)nc2[nH]nnc12` [Example 225, 7-(2-Chloro-6-(methylsulfonyl)benzyloxy)-3H-[1,2,3]triazolo[4,5-b]pyridin-5-amine]: the IC50 was 1 to 100 nM.

Regarding `CCS(=O)(=O)c1ccc(Cl)cc1COc1cc(N)nc2[nH]nnc12` [Example 227, 7-((5-Chloro-2-(ethylsulfonyl)benzyl)oxy)-3H-[1,2,3]triazolo[4,5-b]pyridin-5-amine, TFA], the 50% inhibitory concentration (IC50) was in the range of 101 to 999 nM.

As to `Nc1cc(OCc2cc(Cl)ccc2S(=O)(=O)Cc2ccccc2)c2nn[nH]c2n1` [Example 228, 7-((2-(Benzylsulfonyl)-5-chlorobenzyl)oxy)-3H-[1,2,3]triazolo[4,5-b]pyridin-5-amine, TFA], the IC50 was in the range of 101 to 999 nM.

Turning to `CNS(=O)(=O)c1ccccc1COc1cc(N)nc2[nH]nnc12` [Example 229, 2-(((5-Amino-3H-[1,2,3]triazolo[4,5-b]pyridin-7-yl)oxy)methyl)-N-methylbenzenesulfonamide, TFA], the IC50 lay within 101 to 999 nM.

In the case of `Nc1cc(OCc2ccccc2S(N)(=O)=O)c2nn[nH]c2n1` [Example 230, 2-(((5-Amino-3H-[1,2,3]triazolo[4,5-b]pyridin-7-yl)oxy)methyl)benzenesulfonamide, TFA], the concentration for half-maximal inhibition (IC50) lay within 101 to 999 nM.

With `CS(=O)(=O)c1cc(Br)ccc1COc1cc(N)nc2[nH]nnc12` [Example 231, 7-((4-Bromo-2-(methylsulfonyl)benzyl)oxy)-3H-[1,2,3]triazolo[4,5-b]pyridin-5-amine, TFA], the half-inhibitory concentration (IC50) is 1 to 100 nM.

As to `Nc1cc(OCc2c(F)cc(Br)cc2F)c2nn[nH]c2n1` [Example 233, 7-((4-Bromo-2,6-difluorobenzyl)oxy)-3H-[1,2,3]triazolo[4,5-b]pyridin-5-amine, TFA], the IC50 was in the range of 1 to 100 nM.

For the compound `Nc1cc(OCc2c(F)ccc(Br)c2Cl)c2nn[nH]c2n1` [Example 235, 7-((3-Bromo-2-chloro-6-fluorobenzyl)oxy)-3H-[1,2,3]triazolo[4,5-b]pyridin-5-amine], the IC50 is 1 to 100 nM.

In the case of `Nc1cc(OCc2c(F)ccc(Br)c2F)c2nn[nH]c2n1` [Example 236, 7-((3-Bromo-2,6-difluorobenzyl)oxy)-3H-[1,2,3]triazolo[4,5-b]pyridin-5-amine], the IC50 lay within 1 to 100 nM.

With `Nc1cc(OCc2c(F)cccc2Cl)c2nn[nH]c2n1` [Example 237, 7-((2-Chloro-6-fluorobenzyl)oxy)-3H-[1,2,3]triazolo[4,5-b]pyridin-5-amine], the IC50 lay within 1 to 100 nM.

Turning to `Nc1cc(OCc2ccccc2OC(F)F)c2nn[nH]c2n1` [Example 238, 7-((2-(Difluoromethoxy)benzyl)oxy)-3H-[1,2,3]triazolo[4,5-b]pyridin-5-amine], the IC50 fell in the range of 1 to 100 nM.

For the compound `Nc1cc(OCc2ccccc2C(F)(F)F)c2nn[nH]c2n1` [Example 239, 7-((2-(Trifluoromethyl)benzyl)oxy)-3H-[1,2,3]triazolo[4,5-b]pyridin-5-amine], the IC50 lay within 1 to 100 nM.

Turning to `Nc1cc(OCc2ccc(Br)cc2OC(F)(F)F)c2nn[nH]c2n1` [Example 240, 7-((4-Bromo-2-(trifluoromethoxy)benzyl)oxy)-3H-[1,2,3]triazolo[4,5-b]pyridin-5-amine], the IC50 is 1 to 100 nM.

As for `Nc1cc(OCc2cc(Cl)ccc2C(F)(F)F)c2nn[nH]c2n1` [Example 241, 7-((5-Chloro-2-(trifluoromethyl)benzyl)oxy)-3H-[1,2,3]triazolo[4,5-b]pyridin-5-amine], the half-inhibitory concentration (IC50) was 1 to 100 nM.

As to `COc1cc(-n2cccn2)ccc1COc1cc(N)nc2[nH]nnc12` [Example 243, 7-((2-Methoxy-4-(1H-pyrazol-1-yl)benzyl)oxy)-3H-[1,2,3]triazolo[4,5-b]pyridin-5-amine], the IC50 lay in the range of 1 to 100 nM.

In the case of `Nc1cc(OCc2ccc(-n3ccnc3)cc2OC(F)(F)F)c2nn[nH]c2n1` [Example 244, 7-((4-(1H-Imidazol-1-yl)-2-(trifluoromethoxy)benzyl)oxy)-3H-[1,2,3]triazolo[4,5-b]pyridin-5-amine], the IC50 was 1 to 100 nM.

`N#Cc1cc(Br)ccc1COc1cc(N)nc2[nH]nnc12` [Example 245, 2-(((5-Amino-3H-[1,2,3]triazolo[4,5-b]pyridin-7-yl)oxy)methyl)-5-bromobenzonitrile]: the IC50 was 1 to 100 nM.

With `CS(=O)(=O)c1ccc(COc2cc(N)nc3[nH]nnc23)c(Cl)c1` [Example 246, 7-((2-chloro-4-(methylsulfonyl)benzyl)oxy)-3H-[1,2,3]triazolo[4,5-b]pyridin-5-amine], the concentration for half-maximal inhibition (IC50) was in the range of 101 to 999 nM.

Turning to `N#Cc1ccccc1COc1cc(N)nc2[nH]nnc12` [Example 247, 2-(((5-amino-3H-[1,2,3]triazolo[4,5-b]pyridin-7-yl)oxy)methyl)benzonitrile], the IC50 lay in the range of 1 to 100 nM.

Take `Nc1cc(OCc2cccc(SC(F)(F)F)c2)c2nn[nH]c2n1` [Example 248, 7-((3-((trifluoromethyl)thio)benzyl)oxy)-3H-[1,2,3]triazolo[4,5-b]pyridin-5-amine]: the IC50 was in the range of 1 to 100 nM.

For `Nc1cc(OCc2cc([N+](=O)[O-])ccc2Cl)c2nn[nH]c2n1` [Example 249, 7-((2-chloro-5-nitrobenzyl)oxy)-3H-[1,2,3]triazolo[4,5-b]pyridin-5-amine], the IC50 fell in the range of 1 to 100 nM.

For `CS(=O)(=O)c1ccc(COc2cc(N)nc3[nH]nnc23)c([N+](=O)[O-])c1` [Example 250, 7-((4-(methylsulfonyl)-2-nitrobenzyl)oxy)-3H-[1,2,3]triazolo[4,5-b]pyridin-5-amine], the IC50 is 101 to 999 nM.

Take `Cc1nc(-c2ccc(COc3cc(N)nc4[nH]nnc34)c(F)c2)no1` [Example 251, 7-((2-fluoro-4-(5-methyl-1,2,4-oxadiazol-3-yl)benzyl)oxy)-3H-[1,2,3]triazolo[4,5-b] pyridin-5-amine]: the IC50 is 1 to 100 nM.

For `COc1cc(Cl)c(Cl)cc1COc1cc(N)nc2[nH]nnc12` [Example 252, 7-((4,5-Dichloro-2-methoxybenzyl)oxy)-3H-[1,2,3]triazolo[4,5-b]pyridin-5-amine], the 50% inhibitory concentration (IC50) lay in the range of 1 to 100 nM.

For the compound `Nc1cc(OCc2ccccc2-n2cncn2)c2nn[nH]c2n1` [Example 253, 7-((2-(1H-1,2,4-Triazol-1-yl)benzyl)oxy)-3H-[1,2,3]triazolo[4,5-b]pyridin-5-amine], the IC50 is 101 to 999 nM.

On to `Nc1cc(OCc2ccc(-n3ccccc3=O)cc2OC(F)(F)F)c2nn[nH]c2n1` [Example 256, 1-(4-(((5-amino-3H-[1,2,3]triazolo[4,5-b]pyridin-7-yl)oxy)methyl)-3-(trifluoromethoxy)phenyl) pyridin-2(1H)-one], for which the IC50 was in the range of 101 to 999 nM.

Turning to `Nc1cc(OCc2ccc(-n3cccn3)cc2OC(F)(F)F)c2nn[nH]c2n1` [Example 257], the IC50 is 1 to 100 nM.

For `Nc1cc(OCc2ccc(-n3ncc4ccccc43)cc2OC(F)(F)F)c2nn[nH]c2n1` [Example 258, 7-((4-(1H-indazol-1-yl)-2-(trifluoromethoxy)benzyl)oxy)-3H-[1,2,3]triazolo[4,5-b]pyridin-5-amine], the IC50 lay in the range of 1 to 100 nM.

On to `Nc1cc(OCc2ccc(-n3cc4ccccc4n3)cc2OC(F)(F)F)c2nn[nH]c2n1` [Example 259, 7-((4-(2H-indazol-2-yl)-2-(trifluoromethoxy)benzyl)oxy)-3H-[1,2,3]triazolo[4,5-b]pyridin-5-amine], for which the concentration for half-maximal inhibition (IC50) was 1 to 100 nM.

On to `Nc1cc(OCc2ccc(-n3cnc(-c4ccccc4)c3)cc2OC(F)(F)F)c2nn[nH]c2n1` [Example 260, 7-((4-(4-phenyl-1H-imidazol-1-yl)-2-(trifluoromethoxy)benzyl)oxy)-3H-[1,2,3] triazolo[4,5-b]pyridin-5-amine], for which the half-maximal inhibitory concentration (IC50) lay in the range of 1 to 100 nM.

Turning to `Nc1cc(OCc2ccc(-n3cnc4ccccc43)cc2OC(F)(F)F)c2nn[nH]c2n1` [Example 261, 7-((4-(1H-benzo[d]imidazol-1-yl)-2-(trifluoromethoxy)benzyl)oxy)-3H-[1,2,3] triazolo[4,5-b]pyridin-5-amine], the IC50 was 101 to 999 nM.

(Values after patent US10316035B2, “Triazolopyridine inhibitors of myeloperoxidase” (BRISTOL-MYERS SQUIBB COMPANY, priority 2015, dated 2019).)
